# Data: patent publication US10166214B2, “Somatostatin receptor subtype 4 (SSTR4) agonists” (Centrexion Therapeutics Corporation, priority 2013, dated 2019)
# Experiments:
# [1] = molecular target: human Somatostatin 4 receptor (SSTR4) (Homo sapiens (Human), UniProt P31391); test: cAMP assay with human somatostatin 4 receptor (hSSTR4 expressing H4 cells); format: cell-based; details: read-out: SSTR4 agonism EC50
# Method: Method Description for cAMP Assay with Human Somatostatin 4 Receptor
# The activation of the SSTR4 receptor (Gi coupled) causes an inhibition of intracellular cAMP after stimulation with Forskolin, which can be quantifiable by use of a suitable assay Kit and an adequate plate reader. This technique is used to characterize pharmacological effects of the SSTR4 receptor agonists by use of hSSTR4 expressing H4 cells.
# Compounds are dissolved and diluted in DMSO. The final test solution contains 1% DMSO. […] Cells are centrifuged and suspended in assay buffer (incl. 1:100 diluted Alexa antibody).
# For the assay 5 μl of a cell suspension (approximately 5000 cells/well)—incl. Alexa antibody (diluted 1:100) are added into a 384 well MTP microtitre plate excepting one row or column (depending on the plate layout), which is reserved for the standard curve. Then 2 μl of compound sample is added as concentration response curve (e.g. 1e-5 M to 6e-10 M), usually in triplicates. Each assay contains incubations with vehicle controls instead of compound as controls for non-inhibited cAMP generation (100% CTL; ‘high values’) and incubations with 1 μM Somatosatin as controls for full inhibition and background (0% CTL; ‘low values’). […] Then the plates are shaken briefly and incubated for 60 min at room temperature. After 60 min 10 μl of the detection mix is added into all wells followed by an additional incubation period of 1 h. The plates are read in a suitable plate reader.
# From this ratio, cAMP concentrations are calculated from standard curve and the EC50 is estimated by least square curve fit program.
# [2] = Metabolic stability in pooled human liver microsomes (half-life); format: in vitro ADME; details: 1 μM test compound; for Half-life t1/2: 37° C.; for half-life at 1 μM: pH 7.6, 37° C., read-out: Half-life t1/2
# Method: The metabolic stability of the compounds according to the invention may be investigated as follows:
# The metabolic degradation of the test compound is assayed at 37° C. with pooled human liver microsomes. The final incubation volume of 100 μl per time point contains TRIS buffer pH 7.6 at room temperature (0.1 M), magnesium chloride (5 mM), microsomal protein (1 mg/mL) and the test compound at a final concentration of 1 μM. Following a short preincubation period at 37° C., the reactions are initiated by addition of beta-nicotinamide adenine dinucleotide phosphate, reduced form (NADPH, 1 mM), and terminated by transferring an aliquot into solvent after different time points. After centrifugation (10000 g, 5 min), an aliquot of the supernatant is assayed by LC-MS/MS for the amount of parent compound. The half-life is determined by the slope of the semi-logarithmic plot of the concentration-time profile.
# human SSTR4 = human SSTR4 (Homo sapiens (Human), UniProt P31391); test: Radioligand binding assay, CHO cell membranes expressing recombinant human SSTR4; details: [3-125I-Tyr]-Somatostatin-(1-14)
# Chain of human SSTR4 (P31391 whole entry): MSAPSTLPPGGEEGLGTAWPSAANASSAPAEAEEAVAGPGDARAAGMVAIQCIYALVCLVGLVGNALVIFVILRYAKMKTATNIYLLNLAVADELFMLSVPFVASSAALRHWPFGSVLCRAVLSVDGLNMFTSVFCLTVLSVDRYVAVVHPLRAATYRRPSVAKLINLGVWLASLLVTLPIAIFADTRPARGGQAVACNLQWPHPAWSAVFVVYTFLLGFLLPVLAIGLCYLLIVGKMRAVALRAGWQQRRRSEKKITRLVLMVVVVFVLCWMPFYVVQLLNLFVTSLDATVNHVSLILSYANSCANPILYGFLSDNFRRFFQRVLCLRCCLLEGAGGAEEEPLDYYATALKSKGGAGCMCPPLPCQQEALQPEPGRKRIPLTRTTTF
# Method: Receptor binding assays refer to a technique in which labeled receptor ligands are used to detect binding to a receptor. In competition experiments test compounds, which are not labeled, compete with the binding side of a labeled ligand. The displacement of the labeled ligand by the test compound leads to a decreased signal.
# For the binding experiments 200 μL of membrane homogenate from one of the following protein amounts is used: hSSTR1 (40 μg/well); hSSTR2 (25 μg/well); hSSTR3 (1.5 μg/well); hSSTR4 (0.5 μg/well); hSSTR5 (25 μg/well). […] The protein-bound radioactivity is measured in a suitable reader. The non-specific binding is defined as radioactivity bound in the presence of 1 μM Somatostatin-14 during the incubation period.
# The analysis of the concentration-binding curves is performed by computer-assisted nonlinear least square curve fitting method using the model of one receptor binding site.
# Chain of human Somatostatin 4 receptor (SSTR4) (P31391 whole entry): as above
SMILES,Half-life t1/2 [2],further results
O=C(NC1CCCCC1c1ccccc1)[C@H]1[C@@H]2CNC[C@@H]21 (stereo partly drawn) [Example 9],–,EC50 [1]: 536 nM
CC(C)(COc1cccnc1C(F)(F)F)NC(=O)[C@H]1[C@@H]2CNC[C@@H]21.Cl [Example 18],>2.17 h,–
CC(C)(NC(=O)[C@H]1[C@@H]2CNC[C@@H]21)c1cnc2ccccn12.Cl [Example 20],>2.17 h,–
CC(C)(NC(=O)[C@H]1[C@@H]2CNC[C@@H]21)c1ccnc2ccccc12.Cl [Example 21],>2.17 h,–
Cc1cc2ccccc2c(C(C)(C)NC(=O)[C@H]2[C@@H]3CNC[C@@H]32)n1.Cl [Example 22],>2.17 h,–
CC(C)(NC(=O)[C@H]1[C@@H]2CNC[C@@H]21)c1ncccc1C(F)(F)F.Cl [Example 23],>2.17 h,–
CC(C)(NC(=O)[C@H]1[C@@H]2CNC[C@@H]21)c1nccc2ccccc12.Cl [Example 24],>2.17 h,–
Cc1cccnc1C(C)(C)NC(=O)[C@H]1[C@@H]2CNC[C@@H]21.Cl.Cl [Example 25],>2.17 h,–
CCc1ccccc1OCC(C)(C)NC(=O)[C@H]1[C@@H]2CNC[C@@H]21 [Example 39],>2.17 h,–
Cc1ncccc1OCC(C)(C)NC(=O)[C@H]1[C@@H]2CNC[C@@H]21.Cl [Example 44],>2.17 h,–
Cc1cc(C2CC2)ccc1OCC(C)(C)NC(=O)[C@H]1[C@@H]2CNC[C@@H]21 [Example 65],–,half-life at 1 μM [2]: > 2.17 h
Cc1ccnnc1OCC(C)(C)NC(=O)[C@H]1[C@@H]2CNC[C@@H]21.Cl [Example 67],>2.17 h,–
CC(C)(NC(=O)[C@H]1[C@@H]2CNC[C@@H]21)c1ncc2ccccn12.Cl [Example 68],>2.17 h,–
Cc1cccc2c(C(C)(C)NC(=O)[C@H]3[C@@H]4CNC[C@@H]43)n[nH]c12 [Example 93],–,Ki (human SSTR4): 3.6 nM; half-life at 1 μM [2]: > 2.17 h; EC50 [1]: 0.1 nM
CC(C)(NC(=O)[C@H]1[C@@H]2CNC[C@@H]21)c1n[nH]c2ccccc12 [Example 94],–,half-life at 1 μM [2]: > 2.17 h; EC50 [1]: 1.6 nM
CC(C)(NC(=O)[C@H]1[C@@H]2CNC[C@@H]21)c1noc2c(F)cccc12 [Example 101],>2.17 h,–
CC(C)(NC(=O)[C@H]1[C@@H]2CNC[C@@H]21)c1n[nH]c2c(C(F)(F)F)cccc12 [Example 110],–,half-life at 1 μM [2]: > 2.17 h; EC50 [1]: 0.7 nM
CC(C)(NC(=O)[C@H]1[C@@H]2CNC[C@@H]21)c1nc(C2CC2)c2ccccn12.Cl [Example 120],>2.17 h,–
Cc1cccn2c(C(C)(C)NC(=O)[C@H]3[C@@H]4CNC[C@@H]43)ncc12.Cl [Example 126],>2.17 h,–
Cc1cccn2c(C(C)(C)NC(=O)[C@H]3[C@@H]4CNC[C@@H]43)nc(C)c12.Cl [Example 130],–,half-life at 1 μM [2]: > 2.17 h; EC50 [1]: 0.3 nM
CC(C)(NC(=O)[C@H]1[C@@H]2CNC[C@@H]21)c1ncc2c(F)cccn12.Cl [Example 133],>2.17 h,–
Cc1nc(C(C)(C)NC(=O)[C@H]2[C@@H]3CNC[C@@H]32)c2ccccc2n1 [Example 138],>2.17 h,–
